The assay has as its system 8XTBD luciferase reporter. Briefly: YAP Reporter Assay. Type of assay: cell-based. The conditions noted are these: Homo sapiens, HEK-293T; HEK293T cells stably transfected with 8XTBD luciferase reporter and pRLTK; 24-hr incubation; starting from 3 μM, 1:3 dilution, 10 points; read-out: Firefly Luciferase IC50. As to the method: HEK293T cells stably transfected with 8XTBD luciferase reporter and pRLTK in 384-well plates were treated with the test compounds, starting from 3 μM (final concentration in assay plate), 1:3 dilution, and 10 points in quadruplicates. Post 24-hr incubation with compounds at 37° C. and 5% CO2, cells were lysed and 8XTBD-driven firefly luciferase and control TK-driven renilla luciferase activities were measured using Promega Dual-Luciferase Reporter Assay System.
Reagents: The reagents used for this study are: DMEM: Invitrogen #11960077, Dual-Glo Luciferase Assay System: Promega-E2980, Puromycin Dihydrochloride: Invitrogen-A1113803, 384-well plate: PerkinElmer-6007480, L-GLUTAMINE: Invitrogen-25030164, Hygromycin B: Invitrogen-10687010, and Penicillin-Streptomycin: Merk-TMS-AB2-C
Media: The media used for this assay were: Culture Medium: DMEM+1 ug/mL puromycin+200 ug/mL hygromycin (with 10% FBS+1 mM L-glutamine); and Assay Medium: DMEM (with 10% FBS+1 mM L-glutamine+1×P/S).
Cell Plating: The appropriate media was warmed at 37° C. by water bath: Culture Medium, Assay Medium, 1* D-PBS, 0.05% trypsin-EDTA. The cells were trypsinized after removing all media, then washed with 1* sterile D-PBS and then with 2 ml 0.05% trypsin-EDTA. The cells were then incubated at RT for one minute. Then 10 ml/75 cm2 flask Assay Medium was added to each flask. Using a 10 ml pipette, the cells were then gently resuspended in the media, until the clumps completely disappeared. The cells were then transferred into 50 ml centrifuge tubes and were centrifuged at 800 rpm for 5 mins. The medium was removed and the cells were resuspended with Assay Medium. An aliquot of cells was used to count the cell density (cells/ml). The cell suspension was then diluted with Assay Medium to a concentration of 6×10^4 cells/ml. 50 ul cells suspension was then plated to 384-well plate (PerkinElmer-6007480), 3×10^3 cells/well and the cells were incubated in an incubator at 37° C., 5% CO2.
Compound Treatment: In the afternoon (incubation of the plate with 3-4 hrs), the test compounds were added by Echo, starting from 3 uM (final concentration in the assay plate), 1:3 dilution, 10 points, quadruplicates. The plate was placed at 37° C., 5% CO2 incubator for 24 hrs.
Detection: The Dual-Glo Luciferase Reagent was prepared by transferring the contents of one bottle of Dual-Glo Luciferase Buffer to one bottle of Dual-Glo Luciferase Substrate to create the Dual-Glo Luciferase Reagent. Mixing was performed by inversion until the substrate was thoroughly dissolved. After mixing, the reagent was aliquoted into 15 ml tubes. In the afternoon (24 hrs post compound treatment), the DMEM+ medium in the 384 well plates were aspirated by Microplate Washer.
Measuring firefly luciferase activity: 20 ul Dual-Glo Luciferase Reagent was added to the 384-well plates. The plates were protected from light to prevent interference with the assay. The plates were shaken for 1 min followed centrifuging plates at 1000 rpm for 30 seconds. After waiting at least 10 minutes, the firefly luminescence was measured by Envision.
Measuring renilla luciferase activity: 20 ul Stop-Glo Reagent was added to the 384-well plates. The plates were shaken for 1 min and then centrifuged at 1000 rpm for 30 seconds. After waiting at least 10 minutes, the renilla luminescence was measured by Envision.
Compound IC50 and maximum inhibition on the firefly luciferase and renilla luciferase activities were reported separately.

`CNS(=O)(=O)c1ccc(NC2CCCCC2)c(-c2ncccc2OC)c1` [Compound 80, 4-(cyclohexylamino)-3-(3-methoxypyridin-2-yl)-N-methylbenzenesulfonamide]: the half-inhibitory concentration (IC50) lay in the range of 1000 to 3000 nM. With `CNS(=O)(=O)c1ccc(NC2CCCCC2)c(-c2nnn(Cc3ccccc3)n2)c1` [Compound 20, 3-(2-benzyl-2H-tetrazol-5-yl)-4-(cyclohexylamino)-N-methylbenzenesulfonamide], the 50% inhibitory concentration (IC50) is at most 100 nM. For `CNS(=O)(=O)c1ccc(Nc2cccc(C(F)(F)F)c2)c(-c2nnnn2C)c1` [Compound 97, N-methyl-3-(1-methyl-1H-tetrazol-5-yl)-4-((3-(trifluoromethyl)phenyl)amino)benzenesulfonamide], the IC50 was over 3000 nM.

Turning to `CNS(=O)(=O)c1ccc(NC2CCCCC2)c(-c2nnn(Cc3cccnc3)n2)c1` [Compound 29, 4-(cyclohexylamino)-N-methyl-3-(2-(pyridin-3-ylmethyl)-2H-tetrazol-5-yl)benzenesulfonamide], the IC50 is at most 100 nM. `CNS(=O)(=O)c1ccc(NC2CCCCC2)c(-c2nnn(C3CN(c4cccnc4)C3)n2)c1` [Compound 70, 4-(cyclohexylamino)-N-methyl-3-(2-(1-(pyridin-3-yl)azetidin-3-yl)-2H-tetrazol-5-yl)benzenesulfonamide]: the IC50 is 100 to 1000 nM. Next, `CNS(=O)(=O)c1ccc(NC2CCCCC2)c(-c2nnn(C3CN(C(C)=O)C3)n2)c1` [Compound 49, 3-(2-(1-acetylazetidin-3-yl)-2H-tetrazol-5-yl)-4-(cyclohexylamino)-N-methylbenzenesulfonamide]: 100 to 1000 nM. To `CNS(=O)(=O)c1ccc(Nc2ccc(Cl)c(Cl)c2)c(-c2cn(C)cn2)c1` [Compound 140, 4-(3,4-dichloroanilino)-N-methyl-3-(1-methylimidazol-4-yl)benzenesulfonamide] belongs at most 100 nM.

With `CS(=O)(=O)c1ccc(NC2CCCCC2)c(-n2ccnn2)c1` [Compound 9, N-cyclohexyl-4-(methylsulfonyl)-2-(1H-1,2,3-triazol-1-yl)aniline], the IC50 is over 3000 nM. Next, `CNS(=O)(=O)c1ccc(NC2CCCCC2)c(-c2nnn(C3CCN(C(C)C)CC3)n2)c1` [Compound 46, 4-(cyclohexylamino)-3-(2-(1-isopropylpiperidin-4-yl)-2H-tetrazol-5-yl)-N-methylbenzenesulfonamide]: over 3000 nM; `CNS(=O)(=O)c1ccc(NC2CCCCC2)c(-c2cc(N(C)C)ccn2)c1` [Compound 87, 4-(cyclohexylamino)-3-(4-(dimethylamino)pyridin-2-yl)-N-methylbenzenesulfonamide]: at most 100 nM; `CNS(=O)(=O)c1ccc(Nc2c(F)cccc2F)c(-c2cn(C)cn2)c1` [Compound 149, 4-((2,6-Difluorophenyl)amino)-N-methyl-3-(1-methyl-1H-imidazol-4-yl)benzenesulfonamide]: at most 100 nM.

For `CNS(=O)(=O)c1ccc(Nc2ccc(C(F)(F)F)cc2)c(-c2nnc(N)o2)c1` [Compound 133, 3-(5-amino-1,3,4-oxadiazol-2-yl)-N-methyl-4-[4-(trifluoromethyl)anilino]benzene-sulfonamide], the IC50 fell in the range of 100 to 1000 nM. For `CNS(=O)(=O)c1ccc(NC2CCCCC2)c(-c2cn(C3CC3)cn2)c1` [Compound 111, 4-(cyclohexylamino)-3-(1-cyclopropyl-1H-imidazol-4-yl)-N-methylbenzenesulfonamide], the IC50 was at most 100 nM. Next, `CNS(=O)(=O)c1ccc(NC2CCCCC2)c(-c2nnn(C3CCN(c4ccccc4)C3)n2)c1` (stereo not drawn) [Compound 37, 4-(cyclohexylamino)-N-methyl-3-(2-(1-phenylpyrrolidin-3-yl)-2H-tetrazol-5-yl)benzenesulfonamide]: over 3000 nM. To `CNS(=O)(=O)c1ccc(NC2CCCCC2)c(-c2ccn(C)n2)c1` [Compound 57, 4-(cyclohexylamino)-N-methyl-3-(1-methyl-1H-pyrazol-3-yl)benzenesulfonamide] belongs at most 100 nM.

Take `Cn1ccc(-c2cc(S(C)(=O)=O)ccc2NC2CCCCC2)n1` [Compound 8, N-cyclohexyl-2-(1-methyl-1H-pyrazol-3-yl)-4-(methylsulfonyl)aniline]: the IC50 lay in the range of 100 to 1000 nM. Turning to `CNS(=O)(=O)c1ccc(NC2CCCCC2)c(-c2nnn(C3CN(S(C)(=O)=O)C3)n2)c1` [Compound 50, 4-(cyclohexylamino)-N-methyl-3-(2-(1-(methylsulfonyl)azetidin-3-yl)-2H-tetrazol-5-yl)benzenesulfonamide], the 50% inhibitory concentration (IC50) is over 3000 nM. Next, `CNS(=O)(=O)c1ccc(NC2CCCCC2)c(-c2ccncn2)c1` [Compound 69, 4-(cyclohexylamino)-N-methyl-3-(pyrimidin-4-yl)benzenesulfonamide]: 100 to 1000 nM; `CNS(=O)(=O)c1ccc(NC2CCCCC2)c(-c2nnn(C3CN(c4ccccc4)C3)n2)c1` [Compound 51, 4-(cyclohexylamino)-N-methyl-3-(2-(1-phenylazetidin-3-yl)-2H-tetrazol-5-yl)benzenesulfonamide]: over 3000 nM; `CNS(=O)(=O)c1ccc(NC2CCCCC2)c(-n2nccn2)c1` [Compound 81, 4-(Cyclohexylamino)-N-methyl-3-(2H-1,2,3-triazol-2-yl)benzenesulfonamide]: at most 100 nM.

`Cn1cc(-c2cc(S(C)(=O)=O)ccc2NC2CCCCC2)cn1` [Compound 7, N-cyclohexyl-2-(1-methyl-1H-pyrazol-4-yl)-4-(methylsulfonyl)aniline]: the IC50 is over 3000 nM. Take `CNS(=O)(=O)c1ccc(Nc2cc(F)cc(F)c2)c(-c2nnnn2C)c1` [Compound 107, 4-((3,5-difluorophenyl)amino)-N-methyl-3-(1-methyl-1H-tetrazol-5-yl)benzenesulfonamide]: the IC50 is over 3000 nM. With `CNS(=O)(=O)c1ccc(Nc2ccc(Oc3ccccc3)cc2)c(-c2nnn(C)n2)c1` [Compound 130, N-methyl-3-(2-methyltetrazol-5-yl)-4-(4-phenoxyanilino) benzenesulfonamide], the IC50 lay in the range of 1000 to 3000 nM. In the case of `CNS(=O)(=O)c1ccc(NC2CCCCC2)c(-c2nnn(C3CCN(C(C)=O)C3)n2)c1` (stereo not drawn) [Compound 42, 3-(2-(1-acetylpyrrolidin-3-yl)-2H-tetrazol-5-yl)-4-(cyclohexylamino)-N-methylbenzenesulfonamide], the IC50 fell in the range of 100 to 1000 nM.

Regarding `CNS(=O)(=O)c1ccc(NC2CCCCC2)c(-c2nnn(-c3cccnc3)n2)c1` [Compound 45, 4-(cyclohexylamino)-N-methyl-3-(2-(pyridin-3-yl)-2H-tetrazol-5-yl)benzenesulfonamide], the IC50 was at most 100 nM.

In the case of `CNS(=O)(=O)c1ccc(Nc2ccc(C(F)(F)F)cc2)c(-c2nnn(CCO)n2)c1` [Compound 116, 3-(2-(2-hydroxyethyl)-2H-tetrazol-5-yl)-N-methyl-4-((4-(trifluoromethyl)phenyl)amino)benzenesulfonamide], the IC50 was at most 100 nM. Regarding `CC(C)(C)NS(=O)(=O)c1ccc(NC2CCCCC2)c(-c2nnn(CCO)n2)c1` [Compound 2, N-(tert-butyl)-4-(cyclohexylamino)-3-(2-(2-hydroxyethyl)-2H-tetrazol-5-yl)benzenesulfonamide], the IC50 is over 3000 nM.

As to `CNS(=O)(=O)c1ccc(Nc2ccc(C(F)(F)F)cc2)c(-c2nnn(C)n2)c1` [Compound 95, N-methyl-3-(2-methyl-2H-tetrazol-5-yl)-4-((4-(trifluoromethyl)phenyl)amino)benzenesulfonamide], the IC50 was at most 100 nM. To `CNS(=O)(=O)c1ccc(NC2CCCCC2)c(-c2cccc(N)n2)c1` [Compound 76, 3-(6-aminopyridin-2-yl)-4-(cyclohexylamino)-N-methylbenzenesulfonamide] belongs 100 to 1000 nM. To `CNS(=O)(=O)c1ccc(NC2CCCCC2)c(-c2nnnn2C2CCCNC2)c1` (stereo not drawn) [Compound 75, 4-(cyclohexylamino)-N-methyl-3-(1-(piperidin-3-yl)-1H-tetrazol-5-yl)benzenesulfonamide] belongs 1000 to 3000 nM.

For the origin of these results see US11192865B2, “Benzosulfonyl compounds” (Vivace Therapeutics, Inc., priority 2017, dated 2021).
